{"source": "patent US7776873B2", "about": "“Method for treating damage to gastric mucosa” (Yuhan Corporation, priority 2005, dated 2010)", "key": {"[1]": {"tested_on": "rat gastric mucosal (RGM-1) cells", "assay": "Incidence of ethanol-induced cell death (MTT assay-2)", "format": "cell-based", "conditions": "FIG. 2", "method": "The rat gastric mucosal (RGM-1, RIKEN cell bank, Japan) cells were seeded onto 96-well plate at 5×10^4 cells/ml and cultured in DMEM-F12 (Gibco BRL, Grand Island, N.Y., U.S.A.), supplemented with 100 units/mL penicillin, 100 ug/mL streptomycin, and 10% FBS (Fetal Bovine Serum). […] To remove DMEM-F12 media, the plate was centrifuged at 24° C., 3000 rpm for 5 minutes and washed three times with PBS (137 mM NaCl, 2.7 mM KCl, 10 mM Na2HPO4, and 2 mM KH2PO4). Then, ethanol-containing media (200 mM ethanol-containing DMEM-F12, supplemented with 100 units/mL penicillin, 100 ug/mL streptomycin, and 10% FBS) was added to the cells, and the cells were cultured at 37° C. for 16 hours. After the incubation, the culture was centrifuged at 24° C., 3000 rpm for 5 minutes to remove the culture medium and then total viable cell numbers were assessed by MTT (3-[4,5-dimethylthiazol-2-yl]-2,5-diphenyl tetrazolim bromide) assay method. 1 mg/ml of an MTT solution prepared by dissolving MTT (Amresco, Ohio, U.S.A.) in PBS (137 mM NaCl, 2.7 mM KCl, 10 mM Na2HPO4, and 2 mM KH2PO4) was added to each well (50 μl/well), followed by incubation at 37° C. for 4 hours. The supernatant was then removed by centrifugation at 24° C., 3000 rpm for 5 minutes and the formazan grains formed by the viable cells were dissolved in 99.5% dimethylsulfoxide (DMSO) (Kanto, Tokyo, Japan) (50 μl/well), and the optical intensity was measured at 540 nm using an ELISA reader (TECAN, Maennedorf, Switzerland)."}, "COX-2 (cyclooxygenase-2)": {"tested_on": "COX-2 (cyclooxygenase-2)", "assay": "Expression level of COX-2 in sulindac-treated cells (RT-PCR)", "format": "cell-based, rat", "conditions": "RGM-1 cells, revaprazan 25 uM (rebamipide 50 uM) 16 hours, then sulindac 100 uM 8 hours, FIG. 6", "protocol": "In order to evaluate cytoprotective effect of revaprazan, 100 μM of sulindac belonging to NSAIDs was added to the rat cells, and the expression levels of pro-angiogenic growth factors, VEGF (Vascular Endothelial Growth Factor), interleukin-8 (IL-8), and COX-2 (cyclooxygenase-2) were measured. Rebamipide (50 μM), known to have cytoprotective properties, was used as a control drug and revaprazan (25 μM) was used as a test drug. The rat gastric mucosal (RGM-1, RIKEN cell bank, Japan) cells were seeded in culture dishes at 2×10^6 cells/100 mm^2 and cultured in RPMI 1640 (Gibco BRL, Grand Island, N.Y., U.S.A.), supplemented with 100 units/mL penicillin, 100 ug/mL streptomycin, and 10% FBS (Fetal Bovine Serum). […] The culture media were removed and the cells were washed three times with PBS (137 mM NaCl, 2.7 mM KCl, 10 mM Na2HPO4, and 2 mM KH2PO4). A solution of sulindac in DMSO was added to the cells to reach a final concentration of 100 uM and the cells were cultured at 37° C. for 8 hours. The cultured cells were collected by centrifugation at 23° C. at 3000 rpm for 3 minutes, and the total RNA was isolated from the cells using the TRIzol reagent (Life technologies, Milan, Italy). Sterilized RNase-free water was added to 2 μg of the total RNA and 1 μl of 10 pmol/λ oligo dT to obtain reaction solutions with a volume of 34 μl. […]"}}, "data": [{"smiles": "Cc1nc(Nc2ccc(F)cc2)nc(N2CCc3ccccc3C2C)c1C", "note": "(stereo not drawn) [revaprazan, 5,6-dimethyl-2-(4-fluorophenylamino)-4-(1-methyl-1,2,3,4-tetrahydroisoquinolin-2-yl)pyrimidine]", "values": [{"measurement": "cytoprotective effect against ethanol-induced cytotoxicity compared with rebamipide", "setting": "[1]; 50 uM each", "result": "equal to or greater than rebamipide"}, {"measurement": "ethanol-induced gastric mucosal cytotoxicity", "setting": "[1]; 50 uM pretreatment for 16 hours, then 200 mM ethanol for 16 hours", "result": "significantly reduced"}, {"measurement": "expression level of COX-2 versus rebamipide-sulindac treatment group", "setting": "COX-2 (cyclooxygenase-2)", "result": "much higher"}]}]}
